According to US4331670A (priority 1979, dated 1982):

Columns and labels:
Plutella xylostella = assay: Test 11: mortality of larvae of Plutella xylostella on treated cabbage leaf; assay type: in vivo; settings: foliar, 192 h, leaf dipped, emulsifiable concentrate Composition No. 3, eight days, read-out: Percent mortality
Text: Each emulsifiable concentrate of each active ingredient as Composition No. 3 was dispersed in water at a concentration of 800 ppm. Each leaf of cabbage was dipped into each emulsion for about 10 seconds and taken up and dried in air.
A wet filter paper was put in each Petri dish (diameter of 9 cm), and each treated leaf was put on the filter paper. Larvae of Plutella xylostella at 2nd to 3rd instar were charged and the dish was covered with a cap and kept in a constant temperature chamber with lighting at 28° C. Eight days after the charge, mortality was measured and each percent mortality was calculated.

Pyricularia orzae = assay: whole plant or invertebrate; assay type: in vivo, Pyricularia orzae (rice plant, Chukyo Asahi); settings: in Oryza sativa, 120 h, read-out: Protective value
Rhizoctonia solani = assay: whole plant or invertebrate; assay type: in vivo, Rhizoctonia solani (rice plant, Chukyo Asahi); settings: in Oryza sativa, 120 h, read-out: Preventive value
Botrytis cinerea = assay: Test 9: protective value on cucumber inoculated with Botrytis cinerea; assay type: in vivo, Botrytis cinerea (cucumber plant, Suyo); settings: 72 h, 250 ppm, 10 ml sprayed, lesion length three days after inoculation
Method: In each unglazed pot having a diameter of 9 cm, cucumber plant (Suyo) was cultured. At one leaf stage, 10 ml. of each solution of each active ingredient having a concentration of 250 ppm was sprayed by a spray gun. After maintaining the pot in a green-house at 24° to 25° C. for one day, a disc (punched agar disc) obtained by culturing Botrytis cinerea on a potato-glucose-agar medium (PDA medium) was put on the leaf of cucumber to inoculate them. Three days after the inoculation, lengths of lesions were measured and each protective value was calculated as Test 2.
In accordance with the test, except the concentration of the active ingredient was decreased, the comparative tests of Compound No. 7 and Reference compound were carried out.

Row | SMILES | pest or weed control at 100 ppm (Rhizoctonia solani) | pest or weed control at 100 ppm (Pyricularia orzae) | also measured
1 | O=[N+]([O-])c1cc([N+](=O)[O-])c(Nc2ccncc2)c(C(F)(F)F)c1 [compound 59] | – | – | mortality at 800 ppm (Plutella xylostella): 100%
2 | O=[N+]([O-])c1cc([N+](=O)[O-])c(Nc2ncc(C(F)(F)F)cc2Br)c(C(F)(F)F)c1 [compound 80] | 100% | – | pest or weed control at 50 ppm (Pyricularia orzae): 100%
3 | Cc1c(Cl)cnc(Nc2c([N+](=O)[O-])cc([N+](=O)[O-])cc2C(F)(F)F)c1Cl [compound 78] | 100% | – | pest or weed control at 50 ppm (Pyricularia orzae): 100%
4 | O=[N+]([O-])c1cc(C(F)(F)F)c(F)c([N+](=O)[O-])c1Nc1ncc(C(F)(F)F)cc1Cl [compound 38] | – | 100% | –
5 | O=[N+]([O-])c1cc(C(F)(F)F)cc([N+](=O)[O-])c1Nc1ccc(Cl)cn1 [Compound No. 1] | – | 91% | –
6 | O=[N+]([O-])c1cc(C(F)(F)F)c(Cl)c([N+](=O)[O-])c1Nc1cc(Cl)cc(Cl)n1 [Compound No. 6] | 100% | – | –
7 | O=[N+]([O-])c1cc([N+](=O)[O-])c(Nc2ccc(Cl)nc2Cl)c(C(F)(F)F)c1 [compound 75] | 100% | – | pest or weed control at 50 ppm (Pyricularia orzae): 100%
8 | O=[N+]([O-])c1cc(C(F)(F)F)c(Cl)c([N+](=O)[O-])c1Nc1ncccc1C(F)(F)F [compound 36] | 92% | 100% | pest or weed control at 250 ppm (Botrytis cinerea): 96%
9 | O=[N+]([O-])c1cc([N+](=O)[O-])c(Nc2cccnc2)c(C(F)(F)F)c1 [compound 58] | – | – | mortality at 800 ppm (Plutella xylostella): 100%
10 | Cc1cc(Nc2c([N+](=O)[O-])cc(C(F)(F)F)c(Cl)c2[N+](=O)[O-])ncc1Br [compound 10] | – | 86% | –
11 | COc1c([N+](=O)[O-])cc(C(F)(F)F)c(Nc2ncc(C(F)(F)F)cc2Cl)c1[N+](=O)[O-] [compound 85, N-(3-chloro-5-trifluoromethyl-2-pyridyl)-2,4-dinitro-3-methoxy-6-trifluoromethylaniline] | 100% | – | pest or weed control at 50 ppm (Pyricularia orzae): 100%
12 | CCCCOc1c(C(F)(F)F)cc([N+](=O)[O-])c(Nc2ncc(C(F)(F)F)cc2Cl)c1[N+](=O)[O-] [compound 43] | 95% | 95% | mortality at 800 ppm (Plutella xylostella): 100%
13 | O=[N+]([O-])c1cc([N+](=O)[O-])c(Nc2cccnc2Cl)c(C(F)(F)F)c1 [compound 55] | – | – | mortality at 800 ppm (Plutella xylostella): 100%
14 | O=[N+]([O-])c1cc([N+](=O)[O-])c(Nc2ccc(I)cn2)c(C(F)(F)F)c1 [compound 53] | – | – | mortality at 800 ppm (Plutella xylostella): 100%
15 | Cc1c(Cl)cnc(Nc2c([N+](=O)[O-])cc(C(F)(F)F)cc2[N+](=O)[O-])c1Cl [compound 13] | – | 92% | –
16 | O=[N+]([O-])c1cc(C(F)(F)F)c(Oc2cccc(O)c2)c([N+](=O)[O-])c1Nc1ncc(C(F)(F)F)cc1Cl [compound 50] | 100% | – | pest or weed control at 250 ppm (Botrytis cinerea): 100%
17 | CC(C)COc1c(C(F)(F)F)cc([N+](=O)[O-])c(Nc2ncc(C(F)(F)F)cc2Cl)c1[N+](=O)[O-] [compound 44] | 95% | 95% | –
18 | O=[N+]([O-])c1cc(C(F)(F)F)cc(C(F)(F)F)c1Nc1ccc(C(F)(F)F)c(Cl)n1 [compound 92] | – | – | pest or weed control at 50 ppm (Pyricularia orzae): 100%
19 | CSc1c(C(F)(F)F)cc([N+](=O)[O-])c(Nc2ncc(C(F)(F)F)cc2Cl)c1[N+](=O)[O-] [compound 45] | 100% | 100% | –
20 | O=[N+]([O-])c1cc(C(F)(F)F)c(Oc2ccccc2O)c([N+](=O)[O-])c1Nc1ncc(C(F)(F)F)cc1Cl [compound 48] | 100% | – | pest or weed control at 250 ppm (Botrytis cinerea): 100%
21 | O=[N+]([O-])c1cc([N+](=O)[O-])c(Nc2ccc(C(F)(F)F)cn2)c(C(F)(F)F)c1 [compound 57] | – | – | mortality at 800 ppm (Plutella xylostella): 100%
22 | COc1c([N+](=O)[O-])cc(C(F)(F)F)c(Nc2ncc(Cl)cc2Cl)c1[N+](=O)[O-] [compound 86] | 100% | – | pest or weed control at 50 ppm (Pyricularia orzae): 100%
23 | O=[N+]([O-])c1cc(C(F)(F)F)c(O)c([N+](=O)[O-])c1Nc1ncc(C(F)(F)F)cc1Cl [compound 47] | 95% | 95% | –
24 | O=[N+]([O-])c1cc([N+](=O)[O-])c(Nc2nc(Cl)c(Br)cc2C(F)(F)F)c(C(F)(F)F)c1 [compound 82] | – | – | pest or weed control at 50 ppm (Pyricularia orzae): 100%
25 | CCc1nc(Nc2c([N+](=O)[O-])cc(C(F)(F)F)cc2[N+](=O)[O-])ccc1Br [compound 24] | – | 90% | –
